Laboratory results: ChEMBL document CHEMBL1154434, “Novel keto-enamine Schiffs bases from 7-hydroxy-4-methyl-2-oxo-2H-benzo[h] chromene-8,10-dicarbaldehyde as potential antidyslipidemic and antioxidant agents” (2008)

What was measured:
Assay type in all cases: functional
[1] = Antioxidant activity assessed as inhibition of microsomal lipid peroxidation at 100 ug/mL
[2] = Antioxidant activity assessed as inhibition of hydroxyl radical at 100 ug/mL
[3] = Antioxidant activity assessed as inhibition of superoxide at 100 ug/mL
Rattus norvegicus [4] = test: Antidyslipidemic activity in WR-1339-induced hyperlipidemic Charles Foster rat assessed as reduction in plasma phospholipid level at 100 mg/kg, po after 18 hrs; design: scale not given: the % may be the effect or the level left
Rattus norvegicus [5] = test: Antidyslipidemic activity in WR-1339-induced hyperlipidemic Charles Foster rat assessed as reduction in plasma cholesterol level at 100 mg/kg, po after 18 hrs; design: scale not given: the % may be the effect or the level left
Rattus norvegicus [6] = test: Antidyslipidemic activity in WR-1339-induced hyperlipidemic Charles Foster rat assessed as reduction in plasma triglyceride level at 100 mg/kg, po after 18 hrs; design: scale not given: the % may be the effect or the level left
[7] = Antioxidant activity assessed as inhibition of superoxide at 20 ug/mL

Compound	inhibition [1] [%]	inhibition [2] [%]	inhibition [3] [%]	Activity (Rattus norvegicus [4]) [%]	Activity (Rattus norvegicus [5]) [%]	Activity (Rattus norvegicus [6]) [%]	inhibition [7] [%]
CCCCN/C=C1/C=C(C=O)c2c(ccc3c(C)cc(=O)oc23)C1=O	37						
Cc1c(C)c2c(c(C)c1O)CC[C@@](C)(CCC[C@H](C)CCC[C@H](C)CCCC(C)C)O2	45	48					
OC[C@@H](O)[C@@H](O)[C@H](O)[C@H](O)CO	45	48					
Cc1cc(=O)oc2c1ccc1c(O)c(C=O)cc(C=O)c12	27	52	72	25	23	21	
Cc1ccc(C)c(OCCCC(C)(C)C(=O)O)c1 [GEMFIBROZIL]				32	33	34	
Cc1cc(=O)oc2c3c(ccc12)C(=O)/C(=C\NCCC1CNCCO1)C=C3C=O (stereo not given)	31			21	20	25	
Oc1ncnc2[nH]ncc12							90
CCCCCCCN/C=C1/C=C(C=O)c2c(ccc3c(C)cc(=O)oc23)C1=O	34	49	45	20	24	22	
